This is an account of results in patent US20240246954A1, “COMPOSITIONS AND METHODS FOR INHIBITING KRAS” (TheRas, Inc., priority 2021, published 2024).

In assay [1] the target is T1, Avi-KRAS G12D (1-169) GppNHp/RAF1 RBD-3×FLAG (52-151) (Homo sapiens, UniProt P01116, G12D).
T1 construct: Avi-KRAS G12D (1-169) GppNHp
In words: HTRF Raf1-KRAS G12D-GppNHp disruption assay. The note with it: 1 h incubation. The class given is biochemical. As to the method: (§1) The HTRF assay employed the following protocol:
(§2) Compounds were dispensed in assay plate (384-well, Grenier Bione #784075) using Echo (model 555) with dose response settings: 200 nL final volume, titration from 100 μM as a 10-point dilution series. Protein mix was prepared in assay buffer, and dispensed on plates, 10 μL per well, then incubated for 1 h at room temperature, with 700 rpm shaking. Reagents mix was prepared and dispensed on plates, 10 μL per well, then incubated for 1 h at room temperature, with 700 rpm shaking.
(§3) Plates were analyzed on an Envision plate reader using the following setting: Excitation 320 nm, Bandwidth […]; Emission 615 nm, Bandwidth […], Gain 100%, Flashes 100, Lag 60 μs. Data was reported as percentage of activity, with DMSO as 100%. Data was plotted and analyzed using Prism 8.

The target in assay [2] is T2, Avi-KRAS G12D/Q25A (1-169) GppNHp/3×FLAG-PI3KCA (157-299) (Homo sapiens, UniProt P01116, G12D/Q25A).
T2 construct: Avi-KRAS G12D/Q25A (1-169) GppNHp
Put plainly: HTRF PI3KCA-KRAS G12D/Q25A-GppNHp disruption assay. The note with it: 1 h incubation. It is filed as biochemical. As to the method: as §1, §2, §3
Background: Time-resolved FRET reads energy transfer from a long-lived donor to a nearby acceptor.

Each structure is given as a SMILES string. pIC50: −log10 of the molar value.

T2 sequence (P01116 1-169 isoform P01116-2 G12D/Q25A limits assumed): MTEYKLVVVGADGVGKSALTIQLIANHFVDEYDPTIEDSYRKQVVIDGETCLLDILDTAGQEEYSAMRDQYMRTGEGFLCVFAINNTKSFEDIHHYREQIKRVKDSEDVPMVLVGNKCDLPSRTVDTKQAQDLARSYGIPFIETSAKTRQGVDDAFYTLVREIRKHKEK
T1 sequence (P01116 1-169 isoform P01116-2 G12D limits assumed): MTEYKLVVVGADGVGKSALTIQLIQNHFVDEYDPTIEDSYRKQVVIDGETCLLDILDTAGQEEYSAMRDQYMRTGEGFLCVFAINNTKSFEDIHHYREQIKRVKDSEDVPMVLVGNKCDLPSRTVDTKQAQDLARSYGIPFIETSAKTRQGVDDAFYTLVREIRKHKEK

For orientation: pIC50 means the negative decadic logarithm of the IC50, by convention in mol/L. Low values mean a high IC50, high ones a low IC50. Turning to `Nc1nc2c(-c3c(OC(F)(F)F)cc4c(N5CCNCC5)nc(OCC56CCCN5CCC6)nc4c3F)ccc(F)c2s1` [Compound 228, 7-fluoro-4-(8-fluoro-4-(piperazin-1-yl)-2-((tetrahydro-1H-pyrrolizin-7a(5H)-yl)methoxy)-6-(trifluoromethoxy)quinazolin-7-yl)benzo[d]thiazol-2-amine], the pIC50 in assay [1] and in assay [2] was 5.00 to 6.00 each time.
In the case of `CNCCNc1nc(OC[C@@H]2CCCN2C)nc2c(F)c(-c3ccc(F)c4sc(N)nc34)c(Cl)cc12` [Compound 70], the pIC50 in assay [1] was 5.00 to 6.00; in assay [2], 4.52 to 5.00.
Take `C[C@H]1CNCCN1c1nc(OC[C@@]23CCCN2C[C@@H](F)C3)nc2c(F)c(-c3ccc(F)c4sc(N)nc34)c(C(F)(F)F)cc12` [Compound 222]: the results for the pIC50 in assay [1] and in assay [2] were 5.00 to 6.00 and 4.52 to 5.00, respectively.
As for `CO[C@@H]1C[C@@H](COc2nc(N3CCNCC3)c3cc(Cl)c(-c4ccc(F)c5sc(N)nc45)c(F)c3n2)N(C)C1` [Compound 69], the pIC50 in assay [1] and in assay [2] was 4.52 to 5.00 in each case.
As for `CN1CCC[C@H]1COc1nc(N2CC3(CCCN3)C2)c2cc(Cl)c(-c3ccc(F)c4sc(N)nc34)c(F)c2n1` [Compound 85], the pIC50 in assay [1] and in assay [2] was 4.52 to 5.00 in each case.
For `CN(c1nc(OCC23CCCN2CCC3)nc2c(F)c(-c3ccc(F)c4sc(N)nc34)c(C(F)(F)F)cc12)C1CC2CC[C@@H](C1)N2` (stereo partly shown) [Compound 268], the pIC50 in assay [1] and in assay [2] was 5.00 to 6.00 each time.
As for `CN1CCC[C@H]1COc1nc(NCCN)c2cc(C(F)(F)F)c(-c3ccc(F)c4sc(N)nc34)c(F)c2n1` [Compound 149], the pIC50 in assay [1] and in assay [2] was 5.00 to 6.00 throughout.
Regarding `C[C@@H]1CN(c2nc(OC[C@]34CCCN3C[C@H](F)C4)nc3c(F)c(-c4ccc(F)c5sc(N)nc45)c(C(F)(F)F)cc23)[C@@H](C)CN1` [Compound 214], the values for the pIC50 in assay [1] and in assay [2] were 6.00 to 7.00 and 4.52 to 5.00, respectively.
Turning to `Nc1nc2c(-c3c(C(F)(F)F)cc4c(N5CCNCC5)ncnc4c3F)ccc(F)c2s1` [Compound 65, 7-fluoro-4-(8-fluoro-4-(piperazin-1-yl)-6-(trifluoromethyl)quinazolin-7-yl)benzo[d]thiazol-2-amine], the pIC50 in assay [1] and in assay [2] was 4.52 to 5.00 in each case.
`CO[C@@H]1CN(C)C[C@H]1Oc1nc(NC2CNC2)c2cc(Cl)c(-c3ccc(F)c4sc(N)nc34)c(F)c2n1` [Compound 68]: the pIC50 in assay [1] and in assay [2] was 4.52 to 5.00 in each case.
As for `Nc1nc2c(-c3c(C(F)(F)F)cc4c(N5CCC6(CCNC6)CC5)nc(OCC56CCCN5CCC6)nc4c3F)ccc(F)c2s1` [Compound 308], the pIC50 is 6.00 to 7.00 in assay [1] and 5.00 to 6.00 in assay [2].
Taken in the same sequence, the figures for `CN1CCC[C@H]1COc1nc(NC2CCNC2)c2cc(Cl)c(-c3ccc(F)c4sc(N)nc34)c(F)c2n1` (stereo partly shown) [Compound 98] were 5.00 to 6.00 and 5.00 to 6.00.
Taken in the same sequence, the figures for `CN1CCC[C@H]1COc1nc(N2CC3CNCC3C2)c2cc(Cl)c(-c3ccc(F)c4sc(N)nc34)c(F)c2n1` (stereo partly shown) [Compound 71] were 4.52 to 5.00 and 4.52 to 5.00.
On to `CN1CCC(c2nc(N3CCNCC3)c3cc(Cl)c(-c4ccc(F)c5sc(N)nc45)c(F)c3n2)CC1` [Compound 101], for which the pIC50 in assay [1] and in assay [2] was 4.52 to 5.00 in each case.
Regarding `CN1CCC[C@H]1COc1nc(NCCN)c2cc(Cl)c(-c3ccc4nc(N)sc4c3)c(F)c2n1` [Compound 109], the pIC50 in assay [1] and in assay [2] was 4.52 to 5.00 each time.
With `CN1CCC[C@H]1COc1nc(N2CCNCC2)c2cc(OC(F)(F)F)c(-c3ccc(F)c4sc(N)nc34)c(F)c2n1` [Compound 191], the pIC50 in assay [1] and in assay [2] was 5.00 to 6.00 in each case.
As for `CN1CCC[C@H]1COc1nc(N(CCO)C2CNC2)c2cc(Cl)c(-c3ccc(F)c4sc(N)nc34)c(F)c2n1` [Compound 208], the pIC50 in assay [1] and in assay [2] was 4.52 to 5.00 in each case.
As for `N#CCc1cc2c(N3CCN(C(=O)CN)CC3)ncnc2c(F)c1-c1ccc(F)c2sc(N)nc12` [Compound 131], the pIC50 in assay [1] and in assay [2] was 4.52 to 5.00 in each case.
In the case of `CN1CCC[C@H]1COc1nc(N2CCNCC2)c2cc(-c3cccnc3)c(-c3ccc(F)c4sc(N)nc34)c(F)c2n1` [Compound 155, 7-fluoro-4-(8-fluoro-2-(((S)-1-methylpyrrolidin-2-yl)methoxy)-4-(piperazin-1-yl)-6-(pyridin-3-yl)quinazolin-7-yl)benzo[d]thiazol-2-amine], the figures for the pIC50 in assay [1] and in assay [2] were 4.52 to 5.00 and 5.00 to 6.00, respectively.
`C[C@@H]1CN(c2nc(OC[C@]34CCCN3C[C@H](F)C4)nc3c(F)c(-c4ccc(F)c5sc(N)nc45)c(C(F)(F)F)cc23)CCN1` [Compound 210]: the pIC50 in assay [1] is 5.00 to 6.00; in assay [2] it was 4.52 to 5.00.
As for `CN(C)CCNc1nc(OC[C@@H]2CCCN2C)nc2c(F)c(-c3ccc(F)c4sc(N)nc34)c(Cl)cc12` [Compound 75], the pIC50 in assay [1] is 5.00 to 6.00; in assay [2], 4.52 to 5.00.
As for `NCC(=O)N1CC[C@@H]2[C@H]1CN2c1nc(OCC23CCCN2CCC3)nc2c(F)c(-c3ccc(F)c4sc(N)nc34)c(C(F)(F)F)cc12` [Compound 202], the pIC50 was 6.00 to 7.00 in assay [1] and 5.00 to 6.00 in assay [2].
`Nc1nc2c(-c3c(Cl)cc4c(NC5CNC5)nc(O)nc4c3F)ccc(F)c2s1` [Compound 90]: the pIC50 in assay [1] and in assay [2] was 4.52 to 5.00 throughout.
Turning to `Nc1nc2c(-c3c(C(F)(F)F)cc4c(N5CCC6(CNC6)C5)nc(OCC56CCCN5CCC6)nc4c3F)ccc(F)c2s1` [Compound 307], the pIC50 is 6.00 to 7.00 in assay [1] and 5.00 to 6.00 in assay [2].
For the compound `CN1C[C@H](F)C[C@H]1COc1nc(N2CCNCC2)c2cc(-c3ccoc3)c(-c3ccc(F)c4sc(N)nc34)c(F)c2n1` [Compound 141], the pIC50 in assay [1] and in assay [2] was 4.52 to 5.00 in each case.
For `NCC(=O)N1CC[C@@H]2[C@H]1CN2c1nc(OCC23CCCN2CCC3)nc2c(F)c(-c3ccc(F)c4sc(N)nc34)c(-c3ccoc3)cc12` [Compound 153], the values for the pIC50 in assay [1] and in assay [2] were 5.00 to 6.00 and 4.52 to 5.00, respectively.
As for `CN(c1nc(OCC23CCCN2CCC3)nc2c(F)c(-c3ccc(F)c4sc(N)nc34)c(C(F)(F)F)cc12)[C@@H]1CCN(C(=O)C2CN2)C1` (stereo partly shown) [Compound 230], the pIC50 in assay [1] and in assay [2] was 5.00 to 6.00 throughout.
`CN1CCC[C@H]1COc1nc(N2CC3(CCN3)C2)c2cc(Cl)c(-c3ccc(F)c4sc(N)nc34)c(F)c2n1` [Compound 96]: the pIC50 in assay [1] and in assay [2] was 4.52 to 5.00 each time.
For the compound `CC1(Nc2nc(OCC34CCCN3CCC4)nc3c(F)c(-c4ccc(F)c5sc(N)nc45)c(Cl)cc23)CNC1` [Compound 190], the pIC50 in assay [1] and in assay [2] was 5.00 to 6.00 throughout.
For the compound `CN1CCC[C@H]1COc1nc(NC2CNC2)c2cnc(-c3ccc(F)c4sc(N)nc34)c(F)c2n1` [Compound 80], the pIC50 in assay [1] and in assay [2] was 4.52 to 5.00 throughout.
`CN(c1nc(OCC23CCCN2CCC3)nc2c(F)c(-c3ccc(F)c4sc(N)nc34)c(C(F)(F)F)cc12)[C@@H]1CCN(C(N)=O)C1` (atropisomer, axis not shown) [Compound 278]: the pIC50 in assay [1] and in assay [2] was 5.00 to 6.00 throughout.
On to `CCc1cc2c(N3CCNCC3)nc(OC[C@@H]3CCCN3C)nc2c(F)c1-c1ccc(F)c2sc(N)nc12` [Compound 177, 4-(6-ethyl-8-fluoro-2-(((S)-1-methylpyrrolidin-2-yl)methoxy)-4-(piperazin-1-yl)quinazolin-7-yl)-7-fluorobenzo[d]thiazol-2-amine], for which the negative-log IC50 (pIC50) in assay [1] and in assay [2] was 4.52 to 5.00 throughout.
For `CN1CCC[C@H]1COc1nc(NCCN)c2cc(Cl)c(-c3cccc4nc(N)n(C)c34)c(F)c2n1` [Compound 86], the pIC50 in assay [1] and in assay [2] was 4.52 to 5.00 each time.
`CN(c1nc(OCC23CCCN2CCC3)nc2c(F)c(-c3ccc(F)c4sc(N)nc34)c(C(F)(F)F)cc12)[C@@H]1CCN(C(N)=O)C1` (atropisomer, axis not shown) [Compound 279]: the results for the pIC50 in assay [1] and in assay [2] were 4.52 to 5.00 and 5.00 to 6.00, respectively.
Consider `C[C@@H]1CN(c2nc(OC[C@@]34CCCN3C[C@H](F)C4)nc3c(F)c(-c4ccc(F)c5sc(N)nc45)c(C(F)(F)F)cc23)CCN1` [Compound 212], for which the results for the pIC50 in assay [1] and in assay [2] were 6.00 to 7.00 and 5.00 to 6.00, respectively.
`CN(c1nc(OC[C@@]23CCCN2C[C@H](F)C3)nc2c(F)c(-c3ccc(F)c4sc(N)nc34)c(C(F)(F)F)cc12)C1C2C[C@H]1CN2` (stereo partly shown) [Compound 288]: the values for the pIC50 in assay [1] and in assay [2] were 6.00 to 7.00 and 5.00 to 6.00, respectively.
As for `CN1CCC[C@H]1COc1nc(NCCN)c2cc(Cl)c(-c3cccc4oc(N)nc34)c(F)c2n1` [Compound 92], the pIC50 in assay [1] and in assay [2] was 4.52 to 5.00 throughout.
Consider `COc1cc2c(N3C[C@@H](C)NC[C@@H]3C)nc(OC[C@@]34CCCN3C[C@H](F)C4)nc2c(F)c1-c1ccc(F)c2sc(N)nc12` [Compound 281, 4-(4-((2S,5R)-2,5-dimethylpiperazin-1-yl)-8-fluoro-2-(((2R,7aS)-2-fluorotetrahydro-1H-pyrrolizin-7a(5H)-yl)methoxy)-6-methoxyquinazolin-7-yl)-7-fluorobenzo[d]thiazol-2-amine], for which the pIC50 in assay [1] and in assay [2] was 4.52 to 5.00 each time.
